Consider one molecule from article PMC11487561 (ACS Chemical Neuroscience, 2024).

Assay in all cases: Lead Profiling Screen – Eurofins Panlabs
Common to all, as to type: binding
Conditions in all cases: read-out: % inh at 10 μM

The target in one assay is T1, Adenosine A3 (Homo sapiens, UniProt P0DMS8).
T1 construct: Eurofins Panlabs

The target of assay [1] is T2, Epidermal Growth Factor (EGF) (Homo sapiens, UniProt P00533).
T2 construct: Eurofins Panlabs (contract screen)

The target of another assay is Glutamate, NMDA, Glycine (Rattus norvegicus, UniProt P35439).
The next assay has as its target Muscarinic M2 (Homo sapiens, UniProt P08172).

Sequence of Glutamate, NMDA, Glycine (P35439 394-800 limits assumed): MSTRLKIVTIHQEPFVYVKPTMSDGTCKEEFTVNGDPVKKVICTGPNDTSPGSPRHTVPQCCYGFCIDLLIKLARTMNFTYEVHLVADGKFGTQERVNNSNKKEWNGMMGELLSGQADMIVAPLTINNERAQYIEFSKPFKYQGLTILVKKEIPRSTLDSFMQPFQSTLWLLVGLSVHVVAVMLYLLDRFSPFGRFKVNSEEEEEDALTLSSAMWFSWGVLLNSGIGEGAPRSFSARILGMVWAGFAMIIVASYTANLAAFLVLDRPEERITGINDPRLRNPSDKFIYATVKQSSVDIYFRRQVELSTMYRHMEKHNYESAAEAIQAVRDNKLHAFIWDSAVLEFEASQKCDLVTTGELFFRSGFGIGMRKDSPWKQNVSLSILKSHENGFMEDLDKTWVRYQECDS
T2 sequence (P00533 25-1210): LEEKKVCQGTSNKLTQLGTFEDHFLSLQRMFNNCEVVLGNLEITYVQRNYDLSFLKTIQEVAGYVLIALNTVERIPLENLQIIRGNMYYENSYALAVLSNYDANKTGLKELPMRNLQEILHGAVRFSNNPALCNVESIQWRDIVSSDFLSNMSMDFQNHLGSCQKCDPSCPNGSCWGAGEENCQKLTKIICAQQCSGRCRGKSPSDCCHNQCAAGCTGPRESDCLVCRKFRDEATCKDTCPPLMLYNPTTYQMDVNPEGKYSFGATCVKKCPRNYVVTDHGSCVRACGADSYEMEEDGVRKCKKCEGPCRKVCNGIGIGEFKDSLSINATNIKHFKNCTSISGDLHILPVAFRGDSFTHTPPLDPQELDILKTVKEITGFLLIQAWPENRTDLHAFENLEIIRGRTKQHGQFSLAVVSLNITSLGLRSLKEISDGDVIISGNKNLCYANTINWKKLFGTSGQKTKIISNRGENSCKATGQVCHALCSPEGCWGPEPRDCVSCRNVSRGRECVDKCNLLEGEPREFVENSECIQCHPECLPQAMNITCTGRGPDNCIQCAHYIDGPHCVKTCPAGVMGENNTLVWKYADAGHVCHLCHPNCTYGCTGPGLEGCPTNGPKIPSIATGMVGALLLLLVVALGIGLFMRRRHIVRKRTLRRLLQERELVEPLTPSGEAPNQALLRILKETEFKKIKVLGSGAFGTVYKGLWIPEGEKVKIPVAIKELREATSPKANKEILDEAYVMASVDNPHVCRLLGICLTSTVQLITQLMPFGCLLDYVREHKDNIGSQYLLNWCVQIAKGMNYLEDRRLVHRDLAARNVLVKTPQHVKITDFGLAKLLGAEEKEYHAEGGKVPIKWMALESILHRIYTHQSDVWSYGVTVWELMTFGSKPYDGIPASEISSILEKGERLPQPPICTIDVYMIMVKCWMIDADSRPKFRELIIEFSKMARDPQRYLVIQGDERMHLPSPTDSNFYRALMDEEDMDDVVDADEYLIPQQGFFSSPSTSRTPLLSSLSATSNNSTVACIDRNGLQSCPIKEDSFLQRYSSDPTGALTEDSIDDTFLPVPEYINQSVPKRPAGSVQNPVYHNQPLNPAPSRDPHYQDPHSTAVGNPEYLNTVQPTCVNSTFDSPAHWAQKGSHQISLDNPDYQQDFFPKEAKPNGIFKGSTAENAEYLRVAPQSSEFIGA
Sequence of Muscarinic M2 (P08172 whole entry): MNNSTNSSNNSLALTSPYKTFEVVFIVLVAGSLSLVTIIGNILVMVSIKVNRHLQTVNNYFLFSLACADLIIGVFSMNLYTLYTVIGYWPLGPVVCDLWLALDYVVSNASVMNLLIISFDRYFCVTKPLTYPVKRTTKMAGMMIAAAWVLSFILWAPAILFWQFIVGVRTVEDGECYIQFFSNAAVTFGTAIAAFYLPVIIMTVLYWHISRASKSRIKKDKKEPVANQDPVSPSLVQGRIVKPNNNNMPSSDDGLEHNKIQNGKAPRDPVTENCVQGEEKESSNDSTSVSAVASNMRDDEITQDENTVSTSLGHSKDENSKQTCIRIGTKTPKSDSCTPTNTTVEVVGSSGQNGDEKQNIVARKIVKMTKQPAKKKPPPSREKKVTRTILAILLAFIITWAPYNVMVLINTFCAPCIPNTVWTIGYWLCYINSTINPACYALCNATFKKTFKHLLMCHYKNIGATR
T1 sequence (P0DMS8 whole entry): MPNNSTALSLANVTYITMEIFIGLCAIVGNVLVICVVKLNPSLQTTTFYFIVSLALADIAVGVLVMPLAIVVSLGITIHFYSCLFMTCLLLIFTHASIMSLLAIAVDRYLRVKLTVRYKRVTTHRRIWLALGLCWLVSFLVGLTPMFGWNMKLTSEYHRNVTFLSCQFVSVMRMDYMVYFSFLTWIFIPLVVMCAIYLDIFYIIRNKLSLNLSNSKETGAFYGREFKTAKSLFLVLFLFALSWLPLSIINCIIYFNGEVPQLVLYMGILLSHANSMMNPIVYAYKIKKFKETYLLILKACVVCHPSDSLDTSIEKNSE

Regarding `Cc1nc(C)c2c(n1)sc1c(NCc3ccc(C(C)(C)O)cc3)nccc12` [22g], the inhibition at 10 µM was 22% at Adenosine A3; -3% in assay [1]; -9% on Glutamate, NMDA, Glycine; 10% on Muscarinic M2.
